Measured values: patent publication US9840515B2, “Protein kinase D inhibitors” (University of Pittsburgh—Of the Commonwealth System of …, priority 2010, dated 2017)
Several values for one entry are separate records, joined by “and”; a condition that tells them apart may be missing. Equal values may be shown once. Entries after “also recorded” stand apart in the source; their conditions may differ. Read-outs that look alike come from different tables or passages of the source.

Legend:
[1] = biological target: T1, purified recombinant human PKD1 (Homo sapiens, UniProt Q15139); experiment: radiometric PKD kinase activity assay; type: biochemical
T1 sequence (Q15139 1-912): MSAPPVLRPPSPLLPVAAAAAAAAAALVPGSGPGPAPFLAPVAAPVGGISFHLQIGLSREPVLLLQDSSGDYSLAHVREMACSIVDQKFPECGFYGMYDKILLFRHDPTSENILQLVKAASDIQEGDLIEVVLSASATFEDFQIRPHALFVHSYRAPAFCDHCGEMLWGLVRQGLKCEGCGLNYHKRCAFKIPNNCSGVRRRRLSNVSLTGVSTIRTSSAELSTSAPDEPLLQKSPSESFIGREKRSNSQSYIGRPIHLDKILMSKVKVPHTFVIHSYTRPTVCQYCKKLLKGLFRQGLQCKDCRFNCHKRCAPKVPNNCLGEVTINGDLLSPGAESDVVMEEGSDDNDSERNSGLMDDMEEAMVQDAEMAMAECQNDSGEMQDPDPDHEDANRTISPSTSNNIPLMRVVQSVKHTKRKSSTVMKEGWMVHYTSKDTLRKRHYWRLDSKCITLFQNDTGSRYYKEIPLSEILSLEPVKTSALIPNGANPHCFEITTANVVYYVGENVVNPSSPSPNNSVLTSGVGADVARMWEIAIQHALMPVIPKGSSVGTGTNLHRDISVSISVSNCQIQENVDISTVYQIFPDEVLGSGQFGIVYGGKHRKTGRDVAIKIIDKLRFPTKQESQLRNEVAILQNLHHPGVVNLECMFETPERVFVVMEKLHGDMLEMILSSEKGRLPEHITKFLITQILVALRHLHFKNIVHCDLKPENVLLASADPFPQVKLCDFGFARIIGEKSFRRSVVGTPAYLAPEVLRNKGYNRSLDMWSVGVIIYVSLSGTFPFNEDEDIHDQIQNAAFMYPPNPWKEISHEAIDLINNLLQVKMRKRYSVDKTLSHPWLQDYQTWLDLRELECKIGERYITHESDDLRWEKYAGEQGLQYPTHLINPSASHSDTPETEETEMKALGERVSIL
Procedure: The radiometric PKD kinase assay was carried out by co-incubating 0.5 μCi γ-32P-ATP (PerkinElmer, Boston, Mass.), 20 μM ATP, 50 ng purified recombinant human PKD (PKD1, PKD2, PKD3) proteins, and 2.5 μg Syntide-2 (Sigma) in 50 μl kinase buffer that contains 50 mM Tris-HCl, pH 7.5, 4 mM MgCl2, 10 mM β-mercaptoethanol. The reaction was carried out under sub-saturation conditions, such that the initial rate was within linear kinetic range. The reaction mixture was incubated at 30° C. for 10 min, followed by spotting 25 μl of the mix onto a Whatman P81 filter paper (Whatman Inc, Clifton, N.J.). The filter papers were then washed three times in 0.5% phosphoric acid, air-dried, and counted using a Beckman LS6500 multi-purpose scintillation counter (Beckman, Fullerton, Calif.).

PKD1 [2] = biological target: T2, PKD1 (Homo sapiens, UniProt Q15139); experiment: Cellular inhibition of PMA-induced PKD1 S916 autophosphorylation in LNCaP cells (Western blot densitometry); type: cell-based; set-up: endogenous in cells; host or cells: LNCaP prostate cancer cells; settings: for IC50: PKD1 autophosphorylation at S916 in LNCaP cells
T2 sequence (Q15139 1-912): T1 sequence (Q15139 1-912)
Procedure: The compound to be tested was dissolved in DMSO at an initial concentration of 10 mM. LNCaP prostate cancer cells were pre-treated with DMSO or increasing concentrations of the compound for 45 min, followed by treatment with or without 100 nM phorbol 12-myristate 13-acetate (PMA), an activator of PKD, for 20 min. The cells were harvested for Western blot analysis.
Briefly, cells were lysed in lysis buffer containing 200 mM Tris-HCl, pH 7.4, 100 μM 4-(2-aminoethyl)benzenesulfonyl fluoride, 1 mM EGTA, and 1% Triton X-100. Protein concentration was determined using the BCA Protein Concentration Assay reagent kit (Pierce). Equal amounts of protein were subjected to SDS-PAGE followed by electrotransfer to nitrocellulose membranes. Membranes were blocked with 5% nonfat milk in Tris-buffered saline and then probed with primary antibodies for p-S916-PKD1 (Millipore), p-S744/748-PKD1 (Cell Signaling Technology), or GAPDH (Enzo), followed by anti-mouse or anti-rabbit secondary antibodies conjugated to horseradish peroxidase (Bio-Rad). The bands were detected by incubating with the enhanced chemiluminescence (ECL) Western blotting detection reagent (Amersham Biosciences) and exposing to X-ray films.

CAK (CDK7) = CAK (CDK7) (Homo sapiens, UniProt P50613); experiment: IMAP CAK TR-FRET counter-screen; type: biochemical; settings: read-out: IC50 CAK(CDK7) (Ave ± SD)
CAK (CDK7), sequence (P50613 whole entry, species assumed): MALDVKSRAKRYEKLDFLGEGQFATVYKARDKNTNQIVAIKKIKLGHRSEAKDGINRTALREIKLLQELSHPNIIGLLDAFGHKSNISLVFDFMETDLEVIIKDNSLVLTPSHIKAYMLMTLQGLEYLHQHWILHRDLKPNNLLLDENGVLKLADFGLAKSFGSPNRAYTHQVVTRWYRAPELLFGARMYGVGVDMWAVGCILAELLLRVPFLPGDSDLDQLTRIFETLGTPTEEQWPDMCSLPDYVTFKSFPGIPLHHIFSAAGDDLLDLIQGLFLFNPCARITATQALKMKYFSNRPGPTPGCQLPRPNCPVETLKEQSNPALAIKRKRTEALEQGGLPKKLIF
CAK (CDK7), sequence (P51946 whole entry partner, species assumed): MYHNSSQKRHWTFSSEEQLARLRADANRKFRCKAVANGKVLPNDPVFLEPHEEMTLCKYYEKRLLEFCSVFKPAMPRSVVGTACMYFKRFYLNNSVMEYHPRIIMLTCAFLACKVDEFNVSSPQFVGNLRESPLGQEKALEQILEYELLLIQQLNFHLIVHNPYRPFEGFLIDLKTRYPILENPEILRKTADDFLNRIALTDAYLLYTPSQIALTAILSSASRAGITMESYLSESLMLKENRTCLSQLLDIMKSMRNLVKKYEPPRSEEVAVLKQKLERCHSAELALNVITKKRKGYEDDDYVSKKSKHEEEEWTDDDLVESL
CAK (CDK7), sequence (P51948 whole entry partner, species assumed): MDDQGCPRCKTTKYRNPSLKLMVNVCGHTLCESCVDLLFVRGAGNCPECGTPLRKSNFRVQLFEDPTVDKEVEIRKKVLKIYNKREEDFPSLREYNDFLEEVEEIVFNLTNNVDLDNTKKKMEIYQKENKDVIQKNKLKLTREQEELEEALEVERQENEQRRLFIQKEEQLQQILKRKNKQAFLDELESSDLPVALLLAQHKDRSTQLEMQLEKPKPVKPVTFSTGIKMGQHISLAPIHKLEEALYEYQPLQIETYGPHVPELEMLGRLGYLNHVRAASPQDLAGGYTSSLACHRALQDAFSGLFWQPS
Procedure: (§1) Automated, highthroughput screening (HTS) formatted IMAP-based AKT fluorescent polarization assay (AKT FP), and PLK1 and CAK TR-FRET assays were used to assess the specificity of the PKD analogs as previously described. See Sharlow, E. R., et. al., J. Biol Chem, 283: 33516-33526, (2008). For the PLK2 IMAP TR-FRET assay, PLK2 kinase reactions were generated by the stepwise addition of a 3-fold excess concentration of substrate/ATP (1650 nM/105 μM), analog, and PLK2 enzyme (1.02 milliunits/μL). PLK2 kinase reactions were incubated for 150 min at room temperature and stopped with the addition of an IMAP binding reagent supplemented with terbium. Assay plates were then incubated overnight. Analysis was performed as described in the literature. Id.
(§2) The PLK2 substrate (FAM-[…]) was obtained from Molecular Devices (Sunnyvale, Calif.). H-89 was used as a positive inhibitory control compound in the assays. A 10 point concentration range for each compound to be tested was used to determine IC50 values. The maximum concentration of a particular compound used in this assay was either 50 μM, or 100 μM, depending on the solubility of the individual compounds. Each experiment was assayed in triplicate and data is represented as average IC50±SD. The IC50 determinations for each analog evaluated in the IMAP (PLK2, PLK1, CAK, and AKT) formats were conducted within the linear range of the captured signal readout.

PLK2 = PLK2 (Homo sapiens, UniProt Q9NYY3); experiment: PLK2 IMAP TR-FRET counter-screen; type: biochemical; settings: read-out: IC50 PLK2 (Ave ± SD)
PLK2, sequence (Q9NYY3 whole entry, species assumed): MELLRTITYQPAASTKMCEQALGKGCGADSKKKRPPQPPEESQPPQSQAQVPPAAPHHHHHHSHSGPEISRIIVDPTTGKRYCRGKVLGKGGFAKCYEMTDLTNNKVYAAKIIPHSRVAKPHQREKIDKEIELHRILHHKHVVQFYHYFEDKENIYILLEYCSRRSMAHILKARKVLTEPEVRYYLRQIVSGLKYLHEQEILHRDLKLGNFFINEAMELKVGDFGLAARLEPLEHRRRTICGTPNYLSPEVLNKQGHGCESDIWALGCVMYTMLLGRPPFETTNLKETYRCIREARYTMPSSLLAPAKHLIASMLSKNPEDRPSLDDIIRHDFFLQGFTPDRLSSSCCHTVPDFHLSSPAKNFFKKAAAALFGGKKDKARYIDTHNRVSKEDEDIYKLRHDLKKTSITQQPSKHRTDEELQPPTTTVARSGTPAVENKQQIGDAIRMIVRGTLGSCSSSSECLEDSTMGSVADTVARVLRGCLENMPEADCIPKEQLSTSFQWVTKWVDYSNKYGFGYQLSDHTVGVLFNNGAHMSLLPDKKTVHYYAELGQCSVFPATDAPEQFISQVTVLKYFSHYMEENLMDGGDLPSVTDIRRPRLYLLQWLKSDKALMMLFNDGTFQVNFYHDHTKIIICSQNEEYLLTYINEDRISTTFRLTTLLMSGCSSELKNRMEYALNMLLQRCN
Procedure: as §1, §2

PLK1 = PLK1 (Homo sapiens, UniProt P53350); experiment: IMAP PLK1 TR-FRET counter-screen; type: biochemical; settings: read-out: IC50 PLK1 (Ave ± SD)
PLK1, sequence (P53350 whole entry, species assumed): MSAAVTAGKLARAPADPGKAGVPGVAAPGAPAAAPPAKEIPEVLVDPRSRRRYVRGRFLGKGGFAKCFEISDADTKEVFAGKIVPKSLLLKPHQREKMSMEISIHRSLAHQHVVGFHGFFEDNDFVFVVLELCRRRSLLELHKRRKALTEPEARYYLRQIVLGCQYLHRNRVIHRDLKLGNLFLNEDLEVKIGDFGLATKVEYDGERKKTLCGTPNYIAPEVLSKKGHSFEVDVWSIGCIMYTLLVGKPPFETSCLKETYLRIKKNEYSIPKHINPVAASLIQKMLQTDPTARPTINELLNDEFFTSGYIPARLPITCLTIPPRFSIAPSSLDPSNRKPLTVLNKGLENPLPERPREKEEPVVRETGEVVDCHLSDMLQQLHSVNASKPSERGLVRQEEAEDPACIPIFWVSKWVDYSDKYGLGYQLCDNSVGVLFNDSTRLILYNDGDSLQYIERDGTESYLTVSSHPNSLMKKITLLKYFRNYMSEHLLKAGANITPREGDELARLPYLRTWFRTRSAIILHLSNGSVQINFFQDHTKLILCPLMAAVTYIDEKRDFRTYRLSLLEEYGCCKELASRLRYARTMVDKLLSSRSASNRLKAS
Procedure: as §1, §2

AKT = experiment: IMAP-based AKT fluorescent polarization counter-screen; type: biochemical; settings: read-out: IC50 AKT (Ave ± SD)
Procedure: as §1, §2

PKD1 [3] = biological target: T2, PKD1; experiment: IMAP-FP PKD1 assay; type: biochemical
From the text: See Sharlow, E. R., et. al., J Biol Chem, 283: 33516-33526, (2008). The assay established the concentration of inhibitor that is required to reduce PKD1 activity by 50% (IC50), as shown in Table 2 above.

[4] = stability in protic solvents; type: physicochemical
[5] = radiometric kinase activity assay, in vitro, read-out: IC50 PKD1
[6] = read-out: IC50 radiometric PKD1

| melting point | IC50 [1, 6] [µM] | IC50 (PKD1 [3]) [µM] | Structure (SMILES) | IC50 [1, 5] [µM] | IC50 (PKD1 [2]) | IC50 (CAK (CDK7)) [µM] | IC50 (PLK2) [µM] | IC50 (PLK1) [µM] | IC50 (AKT) [µM] | also measured |
| --- | --- | --- | --- | --- | --- | --- | --- | --- | --- | --- |
| – | – | 2.14 ± 0.12 | O=C1NCCCc2c1[nH]c1ccc(O)cc21 [kb-NB123-57, 3,4,5,10-Tetrahydro-7-hydroxy-azepino[3,4-b]indol-1(2H)-one] | 0.13 | > 50 µM | 39.2 ± 10.2 | > 100 | > 100 | > 100 | cellular PKD1 inhibition, in words (PKD1 [2]; PMA-induced PKD1 autophosphorylation at S916, LNCaP): no significant cellular activity; also recorded: weaker inhibition |
| > 300 °C | 0.85 ± 0.11 | 14.9 ± 1.2 | O=C1NCCC(=O)c2c1oc1ccc(O)cc21 [kb-NB123-63, 7-Hydroxy-2H,3H,4H-azepino[5,6-d]benzo[b]furan-1,5-dione] | – | – | – | – | – | – | – |
| > 300 °C | 0.24 | 1 ± 0.1 | C/C=C/c1c(O)ccc2oc3c(c12)CCCNC3=O [kb-NB96-30, 6-[(E)-2-(Prop-1-enyl)]-7-hydroxy-2,3,4,5-tetrahydro-[1]benzoxolo[2,3-c]azepin-1-one] | – | – | – | – | – | – | – |
| 244 to 247 °C | 1.57 ± 0.2 | 19.4 ± 1.4 | O=C1NCCc2c1[nH]c1ccc(O)cc21 [kb-NB123-59, 2,3,4,9-Tetrahydro-6-hydroxy-1H-pyrido[3,4-b]indol-1-one] | – | – | – | – | – | – | – |
| 308 °C (dec.) | 0.12 ± 0.03 | – | COc1ncc2sc3c(c2n1)SCCNC3=O [kmg-NB4-23, 2-Methoxy-7H,8H,9H-1,4-thiazepino[7′,6′-5,4]thiopheno[3,2-d]pyrimidin-6-one] | 0.124 | 6.8 ± 1.3 µM | > 100 | > 100 | > 100 | > 100 | PKD inhibition, in words [1]: potent nanomolar inhibitor |
| 280 to 282 °C | 1.23 ± 0.21 | 24.1 ± 0.71 | O=C1NCCC(O)c2c1oc1ccc(O)cc21 (centres unmarked) [kb-NB123-89, 5,7-Dihydroxy-2H,3H,4H,5H-azepino[5,6-d]benzo[b]furan-1-one] | – | – | – | – | – | – | – |
| 234 to 236 °C | 1.13 | 21.7 ± 0.52 | O=C1NCCC(=NNc2ccccc2)c2c1oc1ccc(O)cc21 [kb-NB142-05, 7-Hydroxy-5-[(phenylamino)azamethylene]-2H,3H,4H-azepino[5,6-d]benzo[b]furan-1-one] | – | – | – | – | – | – | – |
| 193 °C (dec.) | 0.08 ± 0.01 | – | [N-]=[N+]=Nc1ccc2sc3c(c2c1)SCCNC3=O [mcf292-08, 3,4-Dihydro-9-azido-[1]benzothieno[2,3-f]-1,4-thiazepin-5(2H)-one] | 0.0749 | 2.2 µM and 2.17 µM | > 50 | > 50 | > 50 | > 50 | – |
| – | 25.3 | – | O=C1NCCSc2c1sc1cnc(O)nc21 [kmg-NB4-69A, 2-Hydroxy-7H,8H,9H-1,4-thiazepino[7′,6′-5,4]thiopheno[3,2-d]pyrimidin-6-one] | – | – | – | – | – | – | PKD inhibition, in words [1]: only weak inhibitory effect; stability in protic solvents [4]: spontaneously degrade in protic solvents |

The remaining lines, values behind:

| Structure (SMILES) | melting point | IC50 [1, 6] [µM] | IC50 (PKD1 [3]) [µM] | IC50 [1, 5] [µM] | IC50 (PKD1 [2]) | IC50 (CAK (CDK7)) [µM] | IC50 (PLK2) [µM] | IC50 (PLK1) [µM] | IC50 (AKT) [µM] | also measured |
| --- | --- | --- | --- | --- | --- | --- | --- | --- | --- | --- |
| O=C1NCCSc2c1sc1ccc(O)c(I)c21 [kb-NB165-31, 3,4-Dihydro-9-hydroxy-10-iodo-[1]benzothieno[2,3-f]-1,4-thiazepin-5(2H)-one] | 128 °C (dec.) | 0.11 ± 0.02 | – | 0.114 | 8.6 ± 2 µM | – | – | – | – | cellular activity fold lower than kb-NB142-70 (PKD1 [2]): 4 fold |
| O=C1NCCCSc2c1sc1ccc(O)cc21 [kb-NB165-92, 2,3,4,5-Tetrahydro-10-hydroxybenzo[b]thieno[2,3-f]-1,5-thiazocin-6-one] | – | – | – | 0.111 ± 0.006 | 2.6 µM and 2.56 µM | 11 ± 3.3 | 28 ± 3.1 | 13 ± 7.7 | > 50 | – |
| COc1ccc2sc3c(c2c1)SCCNC3=O [kb-NB165-09, 3,4-Dihydro-9-methoxy-[1]benzothieno[2,3-f]-1,4-thiazepin-5(2H)-one] | – | – | – | 0.0825 ± 0.0046 | 3.1 ± 0.5 µM | 17.1 ± 13.6 | > 50 | > 50 | > 50 | – |
| O=C1NCCCc2c1oc1ccc(O)c(Cl)c21 [kb-NB77-88, 6-Chloro-7-hydroxy-2,3,4,5-tetrahydro-[1]benzoxolo[2,3-c]azepin-1-one] | > 300 °C | 0.89 | 1.4 ± 0.1 | – | – | – | – | – | – | – |
| COc1ccc2sc3c(c2c1)SCCCNC3=O [kb-NB184-02, 2,3,4,5-Tetrahydro-10-methoxybenzo[b]thieno[2,3-f]-1,5-thiazocin-6-one] | – | 0.19 ± 0.03 | – | 0.193 ± 0.027 | 18.6 ± 2 µM | 9 ± 4.1 | > 50 | > 50 | > 100 | – |
| O=C1NCCCc2c1oc1ccc(O)cc21 [CID755673, 7-Hydroxy-2,3,4,5-tetrahydro-[1]benzoxolo[2,3-c]azepin-1-one, reference compound] | – | – | – | 0.182 ± 0.027 | 11.8 µM | – | – | – | – | – |
| O=C1NCCSc2c1sc1ccc(O)cc21 [kb-NB142-70, 3,4-Dihydro-9-hydroxy-[1]benzothieno[2,3-f]-1,4-thiazepin-5(2H)-one] | – | – | – | 0.0283 ± 0.0023 | 2.2 µM | 12 ± 0.6 | 39 ± 3.4 | 17 ± 7.7 | > 100 | fold more potent than CID755673 (in vitro PKD1 IC50) [1]: ~7 fold; cellular IC50 fold lower than CID755673 (PKD1 [2]): 5 fold |
